The test system of data set [1] is T1, UCHL1, USP1, USP2, USP6, USP9x, USP10, USP15, USP16, USP20, USP21, USP22, USP25, USP28, USP35, USP36, USP46/UAF1.
T1 construct: other: each of UCHL1, USP1, USP9x, USP10, USP15, USP16, USP20, USP21, USP22, USP25, USP28
Nature of the data set: DUB biochemical IC50 assays (off-target panel). To be noted: each of UCHL1, USP1, USP9x, USP10, USP15, USP16, USP20, USP21, USP22, USP25, USP28, USP35, USP36, USP46/UAF1; read-out: IC50 (μM) against DUB panel.

Data set [2] has as its target T2, UCHL1 (Homo sapiens, UniProt P09936).
T2 sequence (P09936 1-223): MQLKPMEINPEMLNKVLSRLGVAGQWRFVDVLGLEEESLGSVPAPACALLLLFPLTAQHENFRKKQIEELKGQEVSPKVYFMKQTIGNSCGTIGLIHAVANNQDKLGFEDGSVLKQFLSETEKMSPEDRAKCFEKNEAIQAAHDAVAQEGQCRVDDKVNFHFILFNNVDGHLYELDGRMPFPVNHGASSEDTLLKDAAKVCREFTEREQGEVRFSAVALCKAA
Nature of the data set: DUB IC50 UCHL1. Type of data set: biochemical.

Data set [3] relates to cathepsins B, K, L, S and V. Nature of the data set: Cathepsin IC50, summary over B, K, L, S, V. The class given is biochemical. To be noted: K, L; for fold more potent against USP30 than against each of the cathepsins, at a minimum: cathepsins B, S and V; for Selectivity preference for USP30 v cathepsins: range over cathepsins B, S.
The target of data set [4] is T3, 5-HT2b (Homo sapiens, UniProt P41595).
T3 construct: purchased Eurofins CEREP (contract screening panel) SafetyScreen44
In words: Eurofins CEREP SafetyScreen44 panel, 5-HT2b. The class given is binding. From the text:
Example 2 was subject to pharmacological profiling in the Eurofins CEREP SafetyScreen44 panel.

The target in data set [5] is T4, USP30 (Homo sapiens, UniProt Q70CQ3).
T4 construct: USP30 endogenous cellular target engagement western blot (WB) assay; endogenous in cells; host or cells: HeLa cells stably overexpressing YFP-Parkin
Nature of the data set: USP30 endogenous cellular target engagement western blot assay (Cell TE WB). The class given is cell-based. To be noted: Hela cells stably overexpressing YFP-Parkin, 1 hour. The protocol:
Hela cells stably overexpressing YFP-Parkin were seeded into 6 well dishes. Once adhered, cells were treated with appropriate concentrations of test compounds or vehicle control for 1 hour at 37° C., 5% CO2. Whole cell lysates were prepared by scraping the cells into cold PBS, centrifuging and lysing in lysis buffer (50 mM Tris-base, pH 7.5, 50 mM NaCl, 1% NP-40/Igepal CA-630, 2 mM MgCl2, 10% Glycerol, 5 mM beta-mercaptoethanol, cOmplete mini tablets EDTA free (Roche), PhosStop tablets (Roche)) for 10 mins. The equivalent of 20 μg of protein from the cleared cell lysate was incubated with a final conc of 2.5 μM HA-Ahx-Ahx-Ub-VME probe at room temperature. The reaction was stopped by addition of 5×SDS sample loading buffer and proteins separated by SDS PAGE and western blotting. USP30 was detected using an anti-USP30 Sheep S746D antibody (MRC PPU Reagents and Services) and a rabbit anti sheep secondary IgG (H+L) horseradish peroxidase conjugated (Thermo #31480) and visualised using ECL reagent (GE #RPN2109) on a GE LAS4000 imager. Target engagement was measured by quantitation of the bands corresponding to USP30 and USP30 bound to the Ub-VME probe and expression of this proportion compared to vehicle treated control.
MDR1-MDCK (Madin-Darby Canine Kidney cell monolayer) (in vitro) flux assay. Cell TE WB: USP30 endogenous cellular target engagement western blot (WB) assay. […]

Data set [6] relates to HCT116 human colorectal carcinoma cells. In words: In vitro cytotoxicity (Cell Tox), alamarBlue. The class given is cell-based. To be noted: HCT-116, 96-hour continual compound exposure. Here is the method:
In Vitro Cytotoxicity (Cell Tox): Measured in HCT116 human colorectal carcinoma cells using alamarBlue™ as the assay endpoint. Compound cytotoxicity was measured over a period of 96-hour continual compound exposure.
In general terms: Alamar Blue is a resazurin reagent that responds to reducing activity.

A short description of data set [7]: Mouse plasma stability. The class given is in vitro ADME. To be noted: read-out: Stability Mouse plasma t1/2.
Data set [8] deals with T5, USP30 (Mus musculus, UniProt Q3UN04).
T5 construct: in either brain or kidney tissue samples from compound-dosed animals; from tissue; b325 calls 'TE ex vivo' a kidney tissue assay
Nature of the data set: USP30 brain tissue target engagement assay (TE ex vivo). The class given is in vivo. To be noted: 2 mg/kg iv, n = 2 avg. The protocol: 50 to 100 mg of tissue was homogenised in 3× volume of lysis buffer (50 mM Tris-base, pH 7.5, 50 mM NaCl, 1% NP-40/Igepal CA-630, 2 mM MgCl2, 10% Glycerol, 5 mM beta-mercaptoethanol, cOmplete mini tablets EDTA free (Roche), PhosStop tablets (Roche)) using the Retch Mixer Mill (MM400). The lysates were cleared and protein quantified using the Bradford Protein assay (Pierce). Lysate containing 60 μg protein was incubated with a final conc of 24 μM of HA-Ahx-Ahx-Ub-VME probe for 60 mins at room temperature. The reaction was stopped by addition of 5×SDS sample loading buffer and proteins separated by SDS-PAGE and western blotting. USP30 was detected using an anti-USP30 Sheep S746D antibody (MRC PPU Reagents and Services) and a rabbit anti sheep secondary IgG (H+L) horseradish peroxidase conjugated (Thermo #31480) and visualised using ECL reagent (GE #RPN2109) on a GE LAS4000 imager. Target engagement was measured by quantitation of the bands corresponding to USP30 and USP30 bound to the Ub-VME probe and expression of this proportion compared to vehicle treated control.
MDR1-MDCK (Madin-Darby Canine Kidney cell monolayer) (in vitro) flux assay. Cell TE WB: USP30 endogenous cellular target engagement western blot (WB) assay. Assays the activity of compounds against USP30 in cells using an irreversible activity probe to monitor USP30 activity. […]

In data set [9] the test system is T6, UCHL1, USP1, USP2, USP6, USP9x, USP10, USP15, USP16, USP20, USP21, USP22, USP25, USP28, USP35, USP36, USP46/UAF1.
T6 construct: other: each of UCHL1, USP1, USP2, USP6, USP9x, USP10, USP15, USP16, USP20, USP21, USP22, U
Nature of the data set: DUB biochemical IC50 assays (off-target panel). To be noted: each of UCHL1, USP1, USP2, USP6, USP9x, USP10, USP15, USP16, USP20, USP21, USP22, USP25, USP28, USP35, USP36, USP46/UAF1; read-out: IC50 (μM) against DUB panel.

Data set [10] concerns the target Cathepsin L (Homo sapiens, UniProt P07711). Nature of the data set: Cathepsin IC50, Cathepsin L. The class given is biochemical.

Results on two compounds are retold here after patent US20230119013A1, “N-CYANOPYRROLIDINES WITH ACTIVITY AS USP30 INHIBITORS” (MISSION THERAPEUTICS LIMITED, priority 2020, published 2023).

pEC50: −log10 of the molar value. Read-outs that look alike come from different tables or passages of the source. Where only a bound is given, the exact number is not on record here.

T5 sequence (Q3UN04 whole entry): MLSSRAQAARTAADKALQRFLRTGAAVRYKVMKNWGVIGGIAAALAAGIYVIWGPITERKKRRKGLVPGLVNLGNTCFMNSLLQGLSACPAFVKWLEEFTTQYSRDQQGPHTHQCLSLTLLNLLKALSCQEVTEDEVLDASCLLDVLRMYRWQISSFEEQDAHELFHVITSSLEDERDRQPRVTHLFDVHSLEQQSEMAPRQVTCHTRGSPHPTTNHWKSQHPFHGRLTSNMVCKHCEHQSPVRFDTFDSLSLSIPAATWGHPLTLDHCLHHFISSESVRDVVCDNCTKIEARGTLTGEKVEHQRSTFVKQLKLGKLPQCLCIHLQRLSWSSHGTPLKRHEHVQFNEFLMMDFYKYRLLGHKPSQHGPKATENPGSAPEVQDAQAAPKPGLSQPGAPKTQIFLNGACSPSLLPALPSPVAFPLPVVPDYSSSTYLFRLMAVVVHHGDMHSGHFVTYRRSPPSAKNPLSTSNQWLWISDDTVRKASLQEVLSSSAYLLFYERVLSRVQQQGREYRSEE
Chain of Cathepsin L (P07711 114-333, species assumed): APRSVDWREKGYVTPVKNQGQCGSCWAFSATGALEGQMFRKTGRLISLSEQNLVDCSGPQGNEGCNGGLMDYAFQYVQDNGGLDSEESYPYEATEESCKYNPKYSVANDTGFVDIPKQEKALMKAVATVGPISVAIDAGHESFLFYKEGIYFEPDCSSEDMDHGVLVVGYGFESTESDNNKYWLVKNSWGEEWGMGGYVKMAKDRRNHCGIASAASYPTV
T3 sequence (P41595 whole entry): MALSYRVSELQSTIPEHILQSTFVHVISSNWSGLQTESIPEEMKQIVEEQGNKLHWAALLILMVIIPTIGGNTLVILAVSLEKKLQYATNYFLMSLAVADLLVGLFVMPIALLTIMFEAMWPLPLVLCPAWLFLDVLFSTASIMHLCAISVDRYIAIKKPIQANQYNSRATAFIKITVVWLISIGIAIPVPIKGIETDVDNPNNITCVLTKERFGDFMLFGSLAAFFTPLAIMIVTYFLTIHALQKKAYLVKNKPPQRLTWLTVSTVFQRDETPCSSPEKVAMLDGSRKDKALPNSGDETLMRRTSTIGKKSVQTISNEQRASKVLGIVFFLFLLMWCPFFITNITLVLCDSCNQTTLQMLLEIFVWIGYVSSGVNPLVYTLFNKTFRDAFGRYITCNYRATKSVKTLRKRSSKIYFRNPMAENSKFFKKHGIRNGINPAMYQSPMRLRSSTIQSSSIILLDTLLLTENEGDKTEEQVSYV
T4 sequence (Q70CQ3 whole entry): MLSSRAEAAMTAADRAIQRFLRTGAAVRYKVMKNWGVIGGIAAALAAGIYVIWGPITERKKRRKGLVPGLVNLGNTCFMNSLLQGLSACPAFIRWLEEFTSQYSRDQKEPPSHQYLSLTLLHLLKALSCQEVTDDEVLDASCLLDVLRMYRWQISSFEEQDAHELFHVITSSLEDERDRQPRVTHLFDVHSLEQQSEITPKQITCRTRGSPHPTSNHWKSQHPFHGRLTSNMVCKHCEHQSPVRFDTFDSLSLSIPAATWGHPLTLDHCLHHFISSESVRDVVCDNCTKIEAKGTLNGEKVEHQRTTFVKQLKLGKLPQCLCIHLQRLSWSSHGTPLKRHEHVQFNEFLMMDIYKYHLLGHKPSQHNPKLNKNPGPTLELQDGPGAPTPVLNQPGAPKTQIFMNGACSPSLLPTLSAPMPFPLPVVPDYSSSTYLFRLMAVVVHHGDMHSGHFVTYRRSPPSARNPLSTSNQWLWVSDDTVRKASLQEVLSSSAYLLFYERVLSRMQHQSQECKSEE

A word on the IC50: it is the concentration that inhibits the measured activity by half. The term inhibition denotes the relative decrease from the control value, in per cent. A higher inhibition goes with a response far below the control. One may read the pEC50 as the negative decadic logarithm of the EC50, by convention in mol/L. In the case of `C[C@@H]1C[C@@H](NC(=O)c2ncc(-c3cccc(OC(F)(F)F)c3)o2)CN1C#N` [Example 2, N-((3R,5R)-1-Cyano-5-methylpyrrolidin-3-yl)-5-(3-(trifluoromethoxy)phenyl)oxazole-2-carboxamide], the IC50 in data set [1] was at least 4.7 µM. For the same compound, in data set [2], the “DUB selectivity preference for USP30 v UCHL1” value came to 20000 and the half-maximal inhibitory concentration (IC50) is above 100 µM. For the same compound, in [3], the “fold more potent against USP30 than against each of the cathepsins, at a minimum” value was at least 1700 fold and the “Selectivity preference for USP30 v cathepsins” value is listed as 1700-6000. This compound also registered an inhibition at 10 µM in [4] of 32%. The same compound gave a pEC50 in [5] of 8.15. The compound also showed a negative logarithm of the EC50 (pEC50) in data set [6] of 4.62. Besides, the half-life in [7] was 7 h. Also, in [8] (15 min), the “TE ex vivo Mouse brain (%) at 15 min” value came out at 68%. Moreover, the “TE ex vivo Mouse brain (%) at 60 min” value in data set [8] (60 min) was found to be 25%.

`COC[C@@H]1C[C@@H](NC(=O)c2ncc(-c3cccc(OC(F)(F)F)c3)o2)CN1C#N` [Example 1, N-((3R,5S)-1-Cyano-5-(methoxymethyl)pyrrolidin-3-yl)-5-(3-(trifluoromethoxy)phenyl)oxazole-2-carboxamide]: the figures for the IC50 in [9], in data set [2] and in data set [10] were at least 4.4 µM, above 300 µM and 17.7 µM, respectively. Moreover, the “DUB selectivity preference for USP30 v UCHL1” value in data set [2] was determined as 60000. The “fold more potent against USP30 than against each of the cathepsins, at a minimum” value in [3] was at least 3300 fold. The “Selectivity preference for USP30 v cathepsins” value in [3] is on record as 3300-31600. In data set [6], the pEC50 was below 4.52. Further, the half-life in [7] is 11 h.
